The text below walks through data of US6641840B2, “Sustained release formulations for growth hormone secretagogues” (Pfizer Inc., priority 2000, dated 2003).

The structures appear in SMILES notation. Where two headings read alike, the source gives them in different places. Bounds are passed on as bounds.

Data set [1] is described as follows: Solubility and osmotic pressure of the active compound (statement). It is filed as physicochemical.
Data set [2] has as its system rat pituitary cells. In words: Pituitary cell desensitization - intracellular calcium assay. It is filed as cell-based. The source says:
Thus, it appears that sustained release formulations would not provide the desired in vivo response. The experiment was designed so that changes in intracellular calcium concentration could be continuously monitored during successive exposures of the same cells to the indicated test substances.
Rat pituitary cells were isolated as described in Example 3 and plated onto poly-D-lysine-coated glass coverslips, one coverslip per well in 12-well plates, at a density of 3-4×10^5 cells per well. Assays were performed 3-4 days after plating. Cells were loaded with 5 μM fura-2 AM (Molecular Probes, Eugene, Oreg.), a calcium-sensitive fluorescent dye, by incubation for 30 min at room temperature. Fura-2 was dissolved in dimethylsulfoxide at 5 mM, then diluted into KRH buffer (115 mM NaCl, 5.4 mM KCl, 1.8 mM CaCl2, 1 mM MgCl2, 0.96 mM NaH2PO4, 25 mM HEPES, 6 mM glucose and 0.05% bovine serum albumin, adjusted to pH 7.3)
To assay changes in intracellular calcium concentration, a coverslip with attached cells was mounted in a perfusion chamber on the stage of an inverted microscope (Zeiss Axiovert 135 with epifluorescence, Geschaftsbereich Mikroscopie, Oberkochen, Germany) and continuously superfused at room temperature. After superfusion with KRH for 1-2 min, baseline fluorescence was recorded. Each test substance was applied for 2 min, followed by washout with KRH prior to stimulation with the next test substance. Up to 20 individual cells per field were selected for recording and were excited alternately at wavelengths of 380 nm or 340 nm (slit width 15 nm). Fluorescence emission at 510 nm was collected at 5 sec intervals by a low light CCD camera (Hamamatsu Photonics, Hamamatsu City, Japan), and digitized images for the two excitation wavelengths were analyzed using Videoprobe software (ETM Systems, Irvine, Calif.) to determine the 340 nm/380 nm fluorescence ratio for individual cells during each time interval. The 340 nm/380 nm fluorescence ratio is proportional to the concentration of intracellular calcium.
(In general: Calcium flux is commonly read through the fluorescence of an indicator in the cells.)

In data set [3] the test system is growth hormone. The experiment in a line: Clinical extension study: growth hormone secretion profile (GH peaks). It counts as in vivo, human. The procedure: (§1) In addition, an extension study was conducted to evaluate the relationship between peak GH concentrations or IGF-I versus surrogate responses such as lipid concentrations and body composition. A sustained release (SR) formulation was also evaluated, either alone or combined with an immediate release (IR) formulation (24-30 patients per group). [16 mg (10 SR, 6 IR) h.s. (h.s. means at bedtime); 16 mg (10 SR, 6 IR) h.s. every third day; 16 mg SR h.s.; and placebo.] The formulations are set forth below.
In addition to this schedule, subjects at selected sites in the extension study were studied during two overnight admissions on the first night of dosing and again on day 28 of dosing. Growth hormone secretion and pharmacokinetic sampling was carried out.
(§2) A follow-up evaluation was made at 1, 2, and 4 weeks. Vital signs were obtained and the skin of the face, trunk and upper extremities was inspected.
In addition, subjects at selected study centers were admitted to an overnight unit on day 28 of dosing. Growth hormone secretion profile, pharmacokinetics, and vital sign determination were carried out.

The subject of data set [4] is IGF-1. In words: Clinical study in subjects 65-84 years: change from baseline in IGF-1. It is filed as in vivo, human. As for the experimental part:
This clinical study was performed in male and female subjects between the ages of 65 and 84 years inclusive, and whose baseline IGF-1 levels were <150 ng/ml.
The study was a double blind, parallel group, placebo-controlled study.
(§3) (All dosage forms in this part of the study were immediate release dosage forms.)
as §1
Study active compound was supplied in blisterpaks, with five tablets to be taken at time of each dosing. Subjects were instructed to take the tablets with one glass of water at bedtime.
Return visits were scheduled at 1, 2, and 4 weeks after baseline. […] The baseline and all subsequent follow-up visits were performed at the same time of day (between approximately 8-11 am).
as §2
(§4) The primary efficacy endpoint was the percentage change from baseline in IGF-1. Secondary outcomes included insulin-like growth factor binding protein 3 (IGFBP-3), cholesterol subfractions, and percent changes in total adipose and total lean tissue. Changes in each of the secondary efficacy measures over time were examined systematically either graphically or in tabular form and summarized using appropriate descriptive statistics as is well known in the art.

Data set [5] can be described thus: Clinical study: body composition (total adipose and total lean tissue). It counts as in vivo, human. As for the experimental part:
as §3, §1, §4

Data set [6] has as its system insulin-like growth factor binding protein 3 (IGFBP-3). In words: Clinical study: IGFBP-3. To be noted: first leg, immediate release dosing. It counts as in vivo, human.
Text: as §3, §4

Data set [7] can be described thus: Osmotic agent selection based on active compound solubility screening. It is filed as physicochemical. The settings on record: 37 °C, aqueous with cosolvent or surfactant or cyclodextrin. As for the experimental part:
The osmogens were screened by preparing a saturated solution (unless otherwise noted) of the candidate osmogen in water at 37° C. for 2 hours, and filtering the undissolved portion as described in Example 5.

[8] abbreviates: first leg, immediate release dosing.

The solubility is the concentration that dissolves in the medium under given conditions. Regarding `CN1N=C2CCN(C(=O)[C@@H](COCc3ccccc3)NC(=O)C(C)(C)N)C[C@@]2(Cc2ccccc2)C1=O.O=C(O)C(O)C(O)C(=O)O` [Compound A], in data set [1], the osmotic pressure result is “about 4 atmospheres”. Also, in data set [1] (water), the solubility is more than 150 mg/mL. The “calcium flux on re-exposure to Compound A after washout” value in data set [2] (cells that initially responded to Compound A or GHRP-6) is “refractory”. The “desensitization between GHRH and Compound A” value in data set [2] (intracellular calcium, successive exposures) is given as “no desensitization”. In addition, the “cellular responses (intracellular calcium) on repeated exposure” value in data set [2] (successive 2 min exposures with washout) is “homologous desensitization”. In data set [3] (16 mg (10 SR, 6 IR) every third day vs daily), the “GH peak heights, Q 3 day group greater than QD group” value was 1.52 ng/mL. For the same molecule, the “GH peaks, average” value is 2 ng/mL in data set [3] (group receiving SR alone (16 mg SR h.s.), after 4 weeks); “less than 4 ng/ml” in data set [3] (group receiving SR alone (16 mg SR h.s.), at baseline); not below 15 ng/mL in data set [3] (groups receiving 6 mg IR (with 10 mg SR), at baseline); 4 to 6 ng/mL in data set [3] (groups receiving 6 mg IR (with 10 mg SR), by 4 weeks). Further, in data set [4] (extension study, 16 mg (10 SR, 6 IR) h.s. every third day), the “average rise of IGF-I” value is given as “approximately 10%”. The IGF-I result in data set [4] (extension study, each of the 2 groups dosed daily (16 mg (10 SR, 6 IR) h.s.; 16 mg SR h.s.)) is on record as “increases”. The “increase in IGF-I” value in data set [4] (first leg, both groups administered 9 mg daily (3 mg tid; 3 mg am and 6 mg pm), immediate release, subjects 65-84 years) was “approximately 35%”. Further, the “increases in lean tissue” value in data set [5] (extension study, two groups receiving IR formulation) was 0.5-0.6%. Besides, the “adipose tissue (body composition)” value in data set [5] (setting [8]) is “decreased”. For the same molecule, the “apparent whole body lean mass” value in data set [5] (setting [8]) is “increased”. Further, the IGFBP3 result in data set [6] is recorded as “increased”. The solubility at 5 min was less than 50 mg/mL in data set [7] (filtrate of osmogen solution in water, fructose solution 250 mg/ml (below saturation), read-out: COMPOUND A Solubility); more than 150 mg/mL in data set [7] (filtrate of osmogen solution in water, visual screening, read-out: active compound solubility measured in this manner); more than 150 mg/mL in data set [7] (filtrate of saturated lactose solution in water, saturated lactose solution, approx. 200 mg/ml, read-out: COMPOUND A Solubility); more than 150 mg/mL in data set [7] (filtrate of saturated mannitol solution in water, saturated mannitol solution, approx. 180 mg/ml, read-out: COMPOUND A Solubility); more than 150 mg/mL in data set [7] (filtrate of saturated sodium bitartrate solution in water, saturated sodium bitartrate solution, approx. 110 mg/ml, read-out: COMPOUND A Solubility); more than 150 mg/mL in data set [7] (sorbitol solution in water, 250 mg/ml (below saturation), sorbitol solution 250 mg/ml (below saturation), read-out: COMPOUND A Solubility). In data set [7] (xylitol solution in water, 250 mg/ml (below saturation), xylitol solution 250 mg/ml (below saturation), read-out: COMPOUND A Solubility), the solubility at 5 min was less than 50 mg/mL.
